# Source: PubChem BioAssay (NCI)
#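 Where inhibition never reached the appropriate level, the endpoint shown equals the highest concentration tested. Otherwise, values were interpolated linearly from a five-concentration, 48-hour dose response in 96-well plates. At the GI50, growth is halved. The concentration for full growth arrest is given as TGI.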
# How the values were obtained:
# Assay in all cases: growth of human tumour cells (NCI), 48 h
# RXF 393 renal = tested on: RXF 393 renal
# BT-549 breast = tested on: BT-549 breast
# SR leukemia = tested on: SR leukemia
# RPMI-8226 leukemia = tested on: RPMI-8226 leukemia
# ACHN renal = tested on: ACHN renal
# SNB-19 CNS = tested on: SNB-19 CNS
# PC-3 prostate = tested on: PC-3 prostate
# SW-620 colon = tested on: SW-620 colon
# OVCAR-5 ovarian = tested on: OVCAR-5 ovarian
# U251 CNS = tested on: U251 CNS
# A498 renal = tested on: A498 renal
# MDA-MB-231 breast = tested on: MDA-MB-231 breast
# SK-MEL-28 melanoma = tested on: SK-MEL-28 melanoma
# SF-268 CNS = tested on: SF-268 CNS
# HT29 colon = tested on: HT29 colon
# CCRF-CEM leukemia = tested on: CCRF-CEM leukemia
# NCI/ADR-RES ovarian = tested on: NCI/ADR-RES ovarian
# HS 578T breast = tested on: HS 578T breast
# KM12 colon = tested on: KM12 colon
# MDA-MB-468 breast = tested on: MDA-MB-468 breast
# A549 NSCLC = tested on: A549 NSCLC
# MALME-3M melanoma = tested on: MALME-3M melanoma
# HCT-116 colon = tested on: HCT-116 colon
# SK-OV-3 ovarian = tested on: SK-OV-3 ovarian
# HCC-2998 colon = tested on: HCC-2998 colon
# OVCAR-3 ovarian = tested on: OVCAR-3 ovarian
# LOX IMVI melanoma = tested on: LOX IMVI melanoma
# 786-0 renal = tested on: 786-0 renal
# MOLT-4 leukemia = tested on: MOLT-4 leukemia
# SF-295 CNS = tested on: SF-295 CNS
# SN12C renal = tested on: SN12C renal
# OVCAR-4 ovarian = tested on: OVCAR-4 ovarian
# SK-MEL-5 melanoma = tested on: SK-MEL-5 melanoma
# MDA-MB-435 = tested on: MDA-MB-435
# T-47D breast = tested on: T-47D breast
# UO-31 renal = tested on: UO-31 renal
# SK-MEL-2 melanoma = tested on: SK-MEL-2 melanoma
# SNB-75 CNS = tested on: SNB-75 CNS
# EKVX NSCLC = tested on: EKVX NSCLC
# UACC-257 melanoma = tested on: UACC-257 melanoma
# HOP-62 NSCLC = tested on: HOP-62 NSCLC
# OVCAR-8 ovarian = tested on: OVCAR-8 ovarian
# CAKI-1 renal = tested on: CAKI-1 renal
# HOP-92 NSCLC = tested on: HOP-92 NSCLC
# NCI-H522 lung = tested on: NCI-H522 lung
# MCF7 breast = tested on: MCF7 breast
# SF-539 CNS = tested on: SF-539 CNS
# NCI-H460 lung = tested on: NCI-H460 lung
# NCI-H23 lung = tested on: NCI-H23 lung
# HCT-15 colon = tested on: HCT-15 colon
# IGROV1 ovarian = tested on: IGROV1 ovarian
# DU-145 prostate = tested on: DU-145 prostate
# NCI-H226 lung = tested on: NCI-H226 lung
# COLO 205 colon = tested on: COLO 205 colon
# TK-10 renal = tested on: TK-10 renal
# UACC-62 melanoma = tested on: UACC-62 melanoma
# M14 melanoma = tested on: M14 melanoma
smiles,measurement,setting,value
Cn1cc(-c2cc(N)n3nc(-c4c[nH]c5ccccc45)cc3n2)c2cc(F)ccc21,GI50,RXF 393 renal,1.9 µM
same,TGI,RXF 393 renal,4.19 µM
same,GI50,BT-549 breast,17.6 µM
same,TGI,BT-549 breast,34.2 µM
same,GI50,SR leukemia,2.01 µM
same,TGI,SR leukemia,> 100 µM
same,GI50,RPMI-8226 leukemia,2.48 µM
same,TGI,RPMI-8226 leukemia,6.22 µM
same,GI50,ACHN renal,2.07 µM
same,TGI,ACHN renal,4.81 µM
same,GI50,SNB-19 CNS,2.38 µM
same,TGI,SNB-19 CNS,6.25 µM
same,GI50,PC-3 prostate,2.48 µM
same,TGI,PC-3 prostate,9.08 µM
same,GI50,SW-620 colon,1.95 µM
same,TGI,SW-620 colon,4 µM
same,GI50,OVCAR-5 ovarian,1.97 µM
same,TGI,OVCAR-5 ovarian,4.27 µM
same,GI50,U251 CNS,1.97 µM
same,TGI,U251 CNS,4.09 µM
same,GI50,A498 renal,11.6 µM
same,TGI,A498 renal,26.6 µM
same,GI50,MDA-MB-231 breast,1.98 µM
same,TGI,MDA-MB-231 breast,3.63 µM
same,GI50,SK-MEL-28 melanoma,1.7 µM
same,TGI,SK-MEL-28 melanoma,3.13 µM
same,GI50,SF-268 CNS,2.6 µM
same,TGI,SF-268 CNS,8.08 µM
same,GI50,HT29 colon,1.89 µM
same,TGI,HT29 colon,3.96 µM
same,GI50,CCRF-CEM leukemia,2.23 µM
same,TGI,CCRF-CEM leukemia,5.75 µM
same,GI50,NCI/ADR-RES ovarian,2.35 µM
same,TGI,NCI/ADR-RES ovarian,6.35 µM
same,GI50,HS 578T breast,3.91 µM
same,TGI,HS 578T breast,21.7 µM
same,GI50,KM12 colon,2.12 µM
same,TGI,KM12 colon,4.64 µM
same,GI50,MDA-MB-468 breast,1.52 µM
same,TGI,MDA-MB-468 breast,2.97 µM
same,GI50,A549 NSCLC,2.84 µM
same,TGI,A549 NSCLC,11.1 µM
same,GI50,MALME-3M melanoma,1.75 µM
same,TGI,MALME-3M melanoma,3.18 µM
same,GI50,HCT-116 colon,1.71 µM
same,TGI,HCT-116 colon,3.24 µM
same,GI50,SK-OV-3 ovarian,6.82 µM
same,TGI,SK-OV-3 ovarian,23.6 µM
same,GI50,HCC-2998 colon,1.69 µM
same,TGI,HCC-2998 colon,3.18 µM
same,GI50,OVCAR-3 ovarian,2.3 µM
same,TGI,OVCAR-3 ovarian,4.68 µM
same,GI50,LOX IMVI melanoma,1.74 µM
same,TGI,LOX IMVI melanoma,3.11 µM
same,GI50,786-0 renal,1.49 µM
same,TGI,786-0 renal,2.95 µM
same,GI50,MOLT-4 leukemia,2.32 µM
same,TGI,MOLT-4 leukemia,6.32 µM
same,GI50,SF-295 CNS,1.71 µM
same,TGI,SF-295 CNS,3.39 µM
same,GI50,SN12C renal,2.44 µM
same,TGI,SN12C renal,7.03 µM
same,GI50,OVCAR-4 ovarian,2.76 µM
same,TGI,OVCAR-4 ovarian,8.16 µM
same,GI50,SK-MEL-5 melanoma,1.85 µM
same,TGI,SK-MEL-5 melanoma,3.73 µM
same,GI50,MDA-MB-435,1.93 µM
same,TGI,MDA-MB-435,4.01 µM
same,GI50,T-47D breast,2.05 µM
same,TGI,T-47D breast,4.92 µM
same,GI50,UO-31 renal,1.71 µM
same,TGI,UO-31 renal,3.65 µM
same,GI50,SK-MEL-2 melanoma,2.06 µM
same,TGI,SK-MEL-2 melanoma,4.91 µM
same,GI50,SNB-75 CNS,5.15 µM
same,TGI,SNB-75 CNS,20.3 µM
same,GI50,EKVX NSCLC,1.99 µM
same,TGI,EKVX NSCLC,4.86 µM
same,GI50,UACC-257 melanoma,1.9 µM
same,TGI,UACC-257 melanoma,3.85 µM
same,GI50,HOP-62 NSCLC,2.83 µM
same,TGI,HOP-62 NSCLC,13.9 µM
same,GI50,OVCAR-8 ovarian,3.35 µM
same,TGI,OVCAR-8 ovarian,> 100 µM
same,GI50,CAKI-1 renal,1.97 µM
same,TGI,CAKI-1 renal,4.73 µM
same,GI50,HOP-92 NSCLC,2.06 µM
same,TGI,HOP-92 NSCLC,4.46 µM
same,GI50,NCI-H522 lung,1.78 µM
same,TGI,NCI-H522 lung,3.62 µM
same,GI50,MCF7 breast,1.95 µM
same,TGI,MCF7 breast,4.34 µM
same,GI50,SF-539 CNS,1.63 µM
same,TGI,SF-539 CNS,3.01 µM
same,GI50,NCI-H460 lung,2.2 µM
same,TGI,NCI-H460 lung,4.99 µM
same,GI50,NCI-H23 lung,1.91 µM
same,TGI,NCI-H23 lung,4.22 µM
same,GI50,HCT-15 colon,1.79 µM
same,TGI,HCT-15 colon,3.78 µM
same,GI50,IGROV1 ovarian,2.18 µM
same,TGI,IGROV1 ovarian,5.61 µM
same,GI50,DU-145 prostate,3.7 µM
same,TGI,DU-145 prostate,13.3 µM
same,GI50,NCI-H226 lung,10.7 µM
same,TGI,NCI-H226 lung,45.2 µM
same,GI50,COLO 205 colon,2.17 µM
same,TGI,COLO 205 colon,4.33 µM
same,GI50,TK-10 renal,2.02 µM
same,TGI,TK-10 renal,7.64 µM
same,GI50,UACC-62 melanoma,1.71 µM
same,TGI,UACC-62 melanoma,3.19 µM
same,GI50,M14 melanoma,1.86 µM
same,TGI,M14 melanoma,3.98 µM
